From patent US9938281B2 (Merck Sharp & Dohme Corp., priority 2012, dated 2018)

Assays:
[1] = biological target: T1, PI3K-alpha (Homo sapiens, UniProt P42336); test: HTRF PI3K biochemical assay, alpha isoform; conditions: ratio PI3K-alpha IC50 value / PI3K-delta IC50 value
T1 construct: purchased Upstate; Millipore 14-602

[2] = biological target: T2, PI3K-delta (Homo sapiens, UniProt O00329); test: HTRF PI3K biochemical assay, delta isoform; conditions: form screened (neutral or TFA salt) given, read-out: PI3Kdelta IC50
T2 construct: purchased Upstate; Millipore 14-604
T2 sequence (O00329 whole entry, canonical isoform): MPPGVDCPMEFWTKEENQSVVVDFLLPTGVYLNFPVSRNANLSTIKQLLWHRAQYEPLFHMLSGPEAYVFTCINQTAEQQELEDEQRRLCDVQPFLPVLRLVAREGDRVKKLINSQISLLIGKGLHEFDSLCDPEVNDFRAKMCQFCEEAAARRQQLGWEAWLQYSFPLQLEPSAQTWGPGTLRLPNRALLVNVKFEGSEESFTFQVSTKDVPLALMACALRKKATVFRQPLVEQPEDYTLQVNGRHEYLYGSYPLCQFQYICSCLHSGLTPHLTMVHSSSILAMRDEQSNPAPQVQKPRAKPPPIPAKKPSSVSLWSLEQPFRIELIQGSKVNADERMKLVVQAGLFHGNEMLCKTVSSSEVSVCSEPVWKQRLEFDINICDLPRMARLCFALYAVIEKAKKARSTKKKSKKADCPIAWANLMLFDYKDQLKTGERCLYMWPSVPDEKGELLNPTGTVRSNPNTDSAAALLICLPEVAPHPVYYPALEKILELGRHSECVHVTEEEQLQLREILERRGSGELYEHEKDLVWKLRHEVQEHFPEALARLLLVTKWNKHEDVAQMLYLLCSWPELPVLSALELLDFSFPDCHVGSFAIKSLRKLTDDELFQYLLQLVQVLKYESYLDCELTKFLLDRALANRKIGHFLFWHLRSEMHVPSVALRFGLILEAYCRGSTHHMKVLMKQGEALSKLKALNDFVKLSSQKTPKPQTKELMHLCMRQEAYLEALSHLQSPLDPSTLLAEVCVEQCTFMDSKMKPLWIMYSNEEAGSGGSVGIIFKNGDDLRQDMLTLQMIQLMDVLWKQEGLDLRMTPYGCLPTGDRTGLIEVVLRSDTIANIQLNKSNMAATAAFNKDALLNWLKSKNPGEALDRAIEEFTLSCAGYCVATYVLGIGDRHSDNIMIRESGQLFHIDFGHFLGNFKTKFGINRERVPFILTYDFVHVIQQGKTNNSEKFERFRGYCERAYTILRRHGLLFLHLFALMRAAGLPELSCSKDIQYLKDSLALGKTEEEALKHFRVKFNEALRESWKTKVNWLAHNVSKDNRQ
T2 sequence (P27986 whole entry partner, canonical isoform): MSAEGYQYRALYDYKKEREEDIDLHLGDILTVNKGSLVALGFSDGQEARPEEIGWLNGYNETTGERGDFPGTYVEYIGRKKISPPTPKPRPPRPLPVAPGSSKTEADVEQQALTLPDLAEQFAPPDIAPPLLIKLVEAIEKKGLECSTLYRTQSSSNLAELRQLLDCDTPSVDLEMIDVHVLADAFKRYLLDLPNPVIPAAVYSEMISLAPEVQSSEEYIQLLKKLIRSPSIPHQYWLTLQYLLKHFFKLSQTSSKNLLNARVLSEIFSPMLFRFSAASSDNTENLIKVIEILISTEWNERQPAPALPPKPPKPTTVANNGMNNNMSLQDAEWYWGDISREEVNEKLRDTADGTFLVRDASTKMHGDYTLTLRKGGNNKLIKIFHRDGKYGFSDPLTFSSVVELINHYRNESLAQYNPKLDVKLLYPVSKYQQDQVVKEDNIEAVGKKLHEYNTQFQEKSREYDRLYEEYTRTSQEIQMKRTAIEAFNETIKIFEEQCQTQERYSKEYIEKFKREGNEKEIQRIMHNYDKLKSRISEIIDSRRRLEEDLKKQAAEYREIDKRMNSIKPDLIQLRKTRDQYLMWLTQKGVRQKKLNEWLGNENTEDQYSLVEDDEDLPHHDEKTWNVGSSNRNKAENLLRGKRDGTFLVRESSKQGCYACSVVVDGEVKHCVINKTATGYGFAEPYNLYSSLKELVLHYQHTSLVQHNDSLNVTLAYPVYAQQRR
Source text: HTRF PI3K Biochemical Assay to Measure Intrinsic Potency of Compound Inhibitors
This assay was developed and further optimized from a kit produced by Upstate (Millipore catalog #33-047) and has been configured for HTS and SAR screening. Briefly, this procedure exploits the exquisite specificity and high affinity binding of enzyme reaction substrate phosphatidyl(3,4,5)triphosphate (PIP3) to the GRP1 pleckstrin homology (PH) domain to generate the signal. In the absence of PIP3, an HTRF (Homogeneous Time-Resolved Fluorescence energy transfer) complex is formed consisting of europium (Eu)-labeled anti-GST, GSTtagged GRP1-PH domain, biotin-PIP3 and streptavidin conjugated APC. The native PIP3 produced by PI3-Kinase activity disrupts in a competitive manner the biotin-PIP3 from the PH domain, resulting in the loss of energy transfer (HTRF complex) and a decrease in the signal. The format of this assay is the same for all 4 isoforms of PI3K; the differences lie in the concentration of enzyme used to achieve robust assay window. The alpha, beta, and delta assays are run at 0.5, 1, and 0.3 nM enzymes and the gamma assay is run at 5 nM enzyme. The ATP concentration is 100 uM in the alpha, beta, and delta assays and 50 uM ATP in the gamma assay. All reactions are run at 5 uM PIP2.
Compounds are serially diluted (3-fold in 100% DMSO) across a 384-well polypropylene source plated from column 3 to column 12 and column 13 to column 22, to yield 10 concentration dose response for each test compound. Columns 1, 2, 23 and 24 contain either only DMSO or pharmacological known control inhibitor.
The PI3-Kinase biochemical assay was optimized using the HTRF kit provided by Upstate (Millipore). The assay kit contains six reagents: 1) 4× Reaction Buffer; 2) native PIP2 (substrate); 3) Stop (EDTA); 4) Detection Mix A (Streptavidin-APC); 5) Detection Mix B (Eu-labeled Anti-GST plus GST-tagged PH-domain); 6) Detection Mix C.
PI3Kinase Reaction Buffer is prepared by dilution the stock 1:4 with de-ionized water. […] Enzyme addition and compound pre-incubation are initiated by the addition of 1.25 ul of PI3K (at twice its final concentration) in the 1× reaction buffer to all wells using a BioRaptor. Plates are incubated at room temperature for 15 minutes. Reactions are initiated by addition of 1.25 ul of 2× substrate solution (PIP2 and ATP in 1× reaction buffer) using BioRaptor. Plates are incubated in humidified chamber at room temperature for one hour. Reactions are quenched by addition of 0.625 uL of stop solution to all wells using the BioRaptor. The quenched reactions are then processed to detect product formation by adding 0.625 uL of Detection Solution to all wells using the BioRaptor (Detection mix C, Detection Mix A, and Detection Mix B combined together in an 18:1:1 ratio prepared 2 hours prior to use).
The loss of the HTRF signal is due to the displacement of biotinylated-PIP3 from the PH domain by the PI3K-dependent conversion of PIP2 to PIP3. This loss of signal is nonlinear with respect to both increasing product and time. This non-linear detection will impact accuracy of IC50 calculations; therefore, there is a need for a correction factor to obtain more accurate IC50 values. This correction is derived from a PIP3 standard curve run in a separate assay plate. All data were calculated using the ratio of acceptor (APC) to donor (Europium) fluorescence in each well of the assay plate. […] An IC50 was then calculated fitting the % inhibition data to the equation: % inhibition=min+(Max−min)/1+([inhibitor]/IC50)^n) where min is the % inhibition with inhibitor, max is the signal in DMSO control, and n is the Hill slope.

T1 sequence (P42336 whole entry, canonical isoform): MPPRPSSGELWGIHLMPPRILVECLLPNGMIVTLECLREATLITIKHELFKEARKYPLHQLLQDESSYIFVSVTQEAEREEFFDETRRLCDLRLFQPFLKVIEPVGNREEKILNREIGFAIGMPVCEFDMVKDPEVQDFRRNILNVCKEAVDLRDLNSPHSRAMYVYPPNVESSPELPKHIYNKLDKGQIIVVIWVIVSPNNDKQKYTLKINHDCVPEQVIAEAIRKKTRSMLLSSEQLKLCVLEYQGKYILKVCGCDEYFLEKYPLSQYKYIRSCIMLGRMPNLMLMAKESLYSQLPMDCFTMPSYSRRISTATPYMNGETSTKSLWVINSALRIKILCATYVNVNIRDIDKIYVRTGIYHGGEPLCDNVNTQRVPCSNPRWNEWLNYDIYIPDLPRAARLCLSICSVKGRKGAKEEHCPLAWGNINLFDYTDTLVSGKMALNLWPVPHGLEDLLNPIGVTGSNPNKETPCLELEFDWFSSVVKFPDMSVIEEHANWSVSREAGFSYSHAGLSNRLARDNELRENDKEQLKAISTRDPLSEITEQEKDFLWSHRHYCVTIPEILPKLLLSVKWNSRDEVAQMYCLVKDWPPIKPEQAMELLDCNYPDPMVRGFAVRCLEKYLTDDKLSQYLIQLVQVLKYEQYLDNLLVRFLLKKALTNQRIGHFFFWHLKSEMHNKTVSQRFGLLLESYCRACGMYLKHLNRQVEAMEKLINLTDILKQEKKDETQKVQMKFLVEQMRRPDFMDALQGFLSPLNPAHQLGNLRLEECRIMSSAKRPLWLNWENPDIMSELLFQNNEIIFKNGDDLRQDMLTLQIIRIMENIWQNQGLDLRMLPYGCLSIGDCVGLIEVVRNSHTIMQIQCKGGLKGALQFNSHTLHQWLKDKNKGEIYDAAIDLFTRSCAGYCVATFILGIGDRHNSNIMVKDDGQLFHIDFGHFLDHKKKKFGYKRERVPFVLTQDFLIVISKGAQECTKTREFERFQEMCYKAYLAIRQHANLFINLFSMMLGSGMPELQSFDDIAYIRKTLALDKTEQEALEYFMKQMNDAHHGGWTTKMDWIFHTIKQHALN
T1 sequence (P27986 whole entry partner, canonical isoform): as the sequence (P27986 whole entry partner, canonical isoform) above

For `CCn1c(-c2cnc(C)nc2)nc2c(N[C@H]3CCN(c4nccc5sccc45)C3)ncnc21` [Compound 4-13, 9-ethyl-8-(2-methylpyrimidin-5-yl)-N-[(3S)-1-thieno[3,2-c]pyridin-4-y 1pyrrolidin-3-yl]-9H-purin-6-amine], the “Selectivity versus PI3Kalpha” value [1] was >10 and the IC50 [2] was 14 nM.
For `CCn1c(-c2cnc(C)nc2)nc2c(N[C@H]3CC[C@H](C(=O)N(C)C4CC4)C3)ncnc21` [Compound 5-1, (1S,3S)-N-cyclopropyl-3-{[9-ethyl-8-(2-methylpyrimidin-5-yl)-9H-purin-6-yl]amino}-N-methylcyclopentanecarboxamide], the “Selectivity versus PI3Kalpha” value [1] was >10 and the IC50 [2] was 13 nM.
In the case of `CCn1c(-c2cnc(C)nc2)nc2c(N[C@H]3CC[C@H](C(=O)N4CCC4)C3)ncnc21` [Compound 5-2, N-[(1S,3S)-3-(azetidin-1-ylcarbonyl)cyclopentyl]-9-ethyl-8-(2-methylpyrimidin-5-yl)-9H-purin-6-amine], the “Selectivity versus PI3Kalpha” value [1] is reported as >10 and the IC50 [2] is reported as 35 nM.
With `CCn1c(-c2cnc(C)nc2)nc2c(N[C@H]3CC[C@@H](C(=O)OC)C3)ncnc21` [Compound 5-3, methyl (1R,3S)-3-{[9-ethyl-8-(2-methylpyrimidin-5-yl)-9H-purin-6-yl]amino}cyclopentanecarboxyl-ate] the “Selectivity versus PI3Kalpha” value [1] was >10 and the IC50 [2] was 32 nM.
With `CCn1c(-c2cnc(C)nc2)nc2c(N[C@H]3CC[C@@H](C(=O)N(C)C)C3)ncnc21` [Compound 5-4, (1R,3S)-3-{[9-ethyl-8-(2-methylpyrimidin-5-yl)-9H-purin-6-yl]amino}-N,N-dimethylcyclopentanecarbox-amide] the “Selectivity versus PI3Kalpha” value [1] was >10 and the IC50 [2] was 5.3 nM.
`CCn1c(-c2cnc(C)nc2)nc2c(N[C@H]3CC[C@@H](C(=O)N(C)C4CC4)C3)ncnc21` [Compound 5-5, (1R,3S)-N-cyclopropyl-3-{[9-ethyl-8-(2-methylpyrimidin-5-yl)-9H-purin-6-yl]amino}-N-methylcyclopentanecarboxamide] was tested, and the “Selectivity versus PI3Kalpha” value [1] was >10 and the IC50 [2] was 3.7 nM.
For `CCn1c(-c2cnc(C)nc2)nc2c(N[C@H]3CC[C@@H](C(=O)N4CCC4)C3)ncnc21` [Compound 5-6, N-[(1S,3R)-3-(azetidin-1-ylcarbonyl)cyclopentyl]-9-ethyl-8-(2-methylpyrimidin-5-yl)-9H-purin-6-amine], the “Selectivity versus PI3Kalpha” value [1] was >10 and the IC50 [2] was 11 nM.
In the case of `CCn1c(-c2cnc(C)nc2)nc2c(N[C@H]3CC[C@@H](C(=O)NC)C3)ncnc21` [Compound 5-7], the “Selectivity versus PI3Kalpha” value [1] is reported as >10 and the IC50 [2] is reported as 120 nM.
`CCn1c(C(=O)NCC2CC2)nc2c(N[C@H]3CCN(C(=O)C4CC4)C3)ncnc21` [Compound 6-1, 6-{[(3S)-1-(cyclopropylcarbonyl)pyrrolidin-3-yl]amino}-N-(cyclopropylmethyl)-9-ethyl-9H-purine-8-carboxamide] was tested, and the “Selectivity versus PI3Kalpha” value [1] was >10 and the IC50 [2] was 20 nM.
For `CCn1c(C(=O)NCCOC)nc2c(N[C@H]3CCN(C(=O)C4CC4)C3)ncnc21` [Compound 6-2, 6-{[(3S)-1-(cyclopropylcarbonyl)pyrrolidin-3-yl]amino}-9-ethyl-N-(2-methoxyethyl)-9H-purine-8-carboxamide], the “Selectivity versus PI3Kalpha” value [1] was >10 and the IC50 [2] was 85 nM.
`CCn1c(C(=O)NCC(F)(F)F)nc2c(N[C@H]3CCN(C(=O)C4CC4)C3)ncnc21` [Compound 6-3, 6-{[(3S)-1-(cyclopropylcarbonyl)pyrrolidin-3-yl]amino}-9-ethyl-N-(2,2,2-trifluoroethyl)-9H-purine-8-carboxamide] was tested, and the “Selectivity versus PI3Kalpha” value [1] was >10 and the IC50 [2] was 6.7 nM.
In the case of `CCn1c(C(=O)N2CCOCC2)nc2c(N[C@H]3CCN(C(=O)C4CC4)C3)ncnc21` [Compound 6-4, N-[(3S)-1-(cyclopropylcarbonyl)pyrrolidin-3-yl]-9-ethyl-8-(morpholin-4-ylcarbonyl)-9H-purin-6-amine], the “Selectivity versus PI3Kalpha” value [1] is reported as >10 and the IC50 [2] is reported as 140 nM.
With `CCn1c(C(=O)N(C)C)nc2c(N[C@H]3CCN(C(=O)C4CC4)C3)ncnc21` [Compound 6-5, 6-{[(3S)-1-(cyclopropylcarbonyl)pyrrolidin-3-yl]amino}-9-ethyl-N,N-dimethyl-9H-purine-8-carboxamide] the “Selectivity versus PI3Kalpha” value [1] was >10 and the IC50 [2] was 800 nM.
For `CCn1c(C(=O)NC2COC2)nc2c(N[C@H]3CCN(C(=O)C4CC4)C3)ncnc21` [Compound 6-6, 6-{[(3S)-1-(cyclopropylcarbonyl)pyrrolidin-3-yl]amino}-9-ethyl-N-oxetan-3-yl-9H-purine-8-carboxamide], the “Selectivity versus PI3Kalpha” value [1] was >10 and the IC50 [2] was 62 nM.
For `CCn1c(C(=O)N[C@H]2CC[C@H](O)CC2)nc2c(N[C@H]3CCN(C(=O)C4CC4)C3)ncnc21` [Compound 6-7, 6-{[(3S)-1-(cyclopropylcarbonyl)pyrrolidin-3-yl]amino}-9-ethyl-N-(trans-4-hydroxycyclohexyl)-9H-purine-8-carboxamide], the “Selectivity versus PI3Kalpha” value [1] was >10 and the IC50 [2] was 19 nM.
With `CCn1c(C(=O)N2CCCC2)nc2c(N[C@H]3CCN(C(=O)C4CC4)C3)ncnc21` [Compound 6-8, N-[(3S)-1-(cyclopropylcarbonyl)pyrrolidin-3-yl]-9-ethyl-8-(pyrrolidin-1-ylcarbonyl)-9H-purin-6-amine] the “Selectivity versus PI3Kalpha” value [1] was >10 and the IC50 [2] was 72 nM.
`CCn1c(C(=O)NCC(F)(F)F)nc2c(N[C@H]3CCN(C(=O)C4CCC4)C3)ncnc21` [Compound 6-9, 6-{[(3S)-1-(cyclobutylcarbonyl)pyrrolidin-3-yl]amino}-9-ethyl-N-(2,2,2-trifluoroethyl)-9H-purine-8-carboxamide] was tested, and the “Selectivity versus PI3Kalpha” value [1] was >10 and the IC50 [2] was 3.3 nM.
In the case of `CCn1c(C(=O)NCC(F)(F)F)nc2c(N[C@H]3CCN(c4ccccn4)C3)ncnc21` [Compound 6-10, 9-ethyl-6-{[(3S)-1-pyridin-2-ylpyrrolidin-3-yl]amino}-N-(2,2,2-trifluoroethyl)-9H-purine-8-carboxamide], the “Selectivity versus PI3Kalpha” value [1] is reported as >10 and the IC50 [2] is reported as 16 nM.
`CCn1c(C(N)=O)nc2c(N[C@H]3CCN(C(=O)C4CC4)C3)ncnc21` [Compound 6-11, 6-{[(3S)-1-(cyclopropylcarbonyl)pyrrolidin-3-yl]amino}-9-ethyl-9H-purine-8-carboxamide] was tested, and the “Selectivity versus PI3Kalpha” value [1] was >10 and the IC50 [2] was 73 nM.
In the case of `CCn1c(C(=O)N[C@@H](C)C2CC2)nc2c(N[C@H]3CCN(C(=O)C4CC4)C3)ncnc21` [Compound 6-12, 6-{[(3S)-1-(cyclopropylcarbonyl)pyrrolidin-3-yl]amino}-N-[(1S)-1-cyclopropylethyl]-9-ethyl-9H-purine-8-carboxamide], the “Selectivity versus PI3Kalpha” value [1] is reported as >10 and the IC50 [2] is reported as 25 nM.
For `CCn1c(C(=O)N[C@H](C)C2CC2)nc2c(N[C@H]3CCN(C(=O)C4CC4)C3)ncnc21` [Compound 6-13, 6-{[(3S)-1-(cyclopropylcarbonyl)pyrrolidin-3-yl]amino}-N-[(1R)-1-cyclopropylethyl]-9-ethyl-9H-purine-8-carboxamide], the “Selectivity versus PI3Kalpha” value [1] was >10 and the IC50 [2] was 12 nM.
In the case of `CCn1c(C(=O)NC2CCCCC2)nc2c(N[C@H]3CCN(C(=O)C4CC4)C3)ncnc21` [Compound 6-14, N-cyclohexyl-6-{[(3S)-1-(cyclopropylcarbonyl)pyrrolidin-3-yl]amino}-9-ethyl-9H-purine-8-carboxamide], the “Selectivity versus PI3Kalpha” value [1] is reported as >10 and the IC50 [2] is reported as 17 nM.
For `CCn1c(C(=O)N(C)CC(F)(F)F)nc2c(N[C@H]3CCN(C(=O)C4CC4)C3)ncnc21` [Compound 6-15, 6-{[(3S)-1-(cyclopropylcarbonyl)pyrrolidin-3-yl]amino}-9-ethyl-N-methyl-N-(2,2,2-trifluoroethyl)-9H-purine-8-carboxamide], the “Selectivity versus PI3Kalpha” value [1] was >10 and the IC50 [2] was 230 nM.
In the case of `CCn1c(C(=O)NC(C)(C)C)nc2c(N[C@H]3CCN(C(=O)C4CC4)C3)ncnc21` [Compound 6-16, N-tert-butyl-6-{[(3S)-1-(cyclopropylcarbonyl)pyrrolidin-3-yl]amino}-9-ethyl-9H-purine-8-carboxamide], the “Selectivity versus PI3Kalpha” value [1] is reported as >10 and the IC50 [2] is reported as 20 nM.
With `CCn1c(C(=O)NCCC(F)(F)F)nc2c(N[C@H]3CCN(C(=O)C4CC4)C3)ncnc21` [Compound 6-17, 6-{[(3S)-1-(cyclopropylcarbonyl)pyrrolidin-3-yl]amino}-9-ethyl-N-(3,3,3-trifluoropropyl)-9H-purine-8-carboxamide] the “Selectivity versus PI3Kalpha” value [1] was >10 and the IC50 [2] was 14 nM.
`CCn1c(C(=O)Nc2ccccc2)nc2c(N[C@H]3CCN(C(=O)C4CC4)C3)ncnc21` [Compound 6-18, 6-{[(3S)-1-(cyclopropylcarbonyl)pyrrolidin-3-yl]amino}-9-ethyl-N-phenyl-9H-purine-8-carboxamide] was tested, and the “Selectivity versus PI3Kalpha” value [1] was >10 and the IC50 [2] was 15 nM.
In the case of `CCNC(=O)c1nc2c(N[C@H]3CCN(C(=O)C4CC4)C3)ncnc2n1CC` [Compound 6-19, 6-{[(3S)-1-(cyclopropylcarbonyl)pyrrolidin-3-yl]amino}-N,9-diethyl-9H-purine-8-carboxamide], the “Selectivity versus PI3Kalpha” value [1] is reported as >10 and the IC50 [2] is reported as 31 nM.
In the case of `CCn1c(C(=O)Nc2ccccn2)nc2c(N[C@H]3CCN(C(=O)C4CC4)C3)ncnc21` [Compound 6-20, 6-{[(3S)-1-(cyclopropylcarbonyl)pyrrolidin-3-yl]amino}-9-ethyl-N-pyridin-2-yl-9H-purine-8-carboxamide], the “Selectivity versus PI3Kalpha” value [1] is reported as >10 and the IC50 [2] is reported as 23 nM.
`CCn1c(C(=O)Nc2cccnc2)nc2c(N[C@H]3CCN(C(=O)C4CC4)C3)ncnc21` [Compound 6-21, 6-{[(3S)-1-(cyclopropylcarbonyl)pyrrolidin-3-yl]amino}-9-ethyl-N-pyridin-3-yl-9H-purine-8-carboxamide] was tested, and the “Selectivity versus PI3Kalpha” value [1] was >10 and the IC50 [2] was 17 nM.
`CCn1c(CC2CC2)nc2c(N[C@H]3CCN(C(=O)C4CC4)C3)ncnc21` [Compound 7-1, N-[(3S)-1-(cyclopropylcarbonyl)pyrrolidin-3-yl]-8-(cyclopropylmethyl)-9-ethyl-9H-purin-6-amine] was tested, and the “Selectivity versus PI3Kalpha” value [1] was >10 and the IC50 [2] was 47 nM.
For `CCC(=O)N1CC[C@H](Nc2ncnc3c2nc(CC(C)C)n3CC)C1` [Compound 7-2, 9-ethyl-8-(2-methylpropyl)-N-[(3S)-1-propanoylpyrrolidin-3-yl]-9H-purin-6-amine], the “Selectivity versus PI3Kalpha” value [1] was >10 and the IC50 [2] was 51 nM.
